The structures appear in SMILES notation. Values after ≈ are worked out from the molar mass of the structure shown. A value given as a limit tells only on which side of the number the result lay.

Test [1] deals with E. coli ELZ4251. In words: Antibacterial activity, MIC, multi-drug resistant clinical isolate (Table 3). Particulars: Escherichia coli. The format is cell-based. The method, boiled down: (§1)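 Compounds were serially diluted in broth microdilution format and growth was scored visually; the MIC is the lowest concentration at which no macroscopically visible growth occurred, expressed in μg/mL.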

Test [2] concerns E. coli ELZ4000. The description is as above. In kind it is cell-based. Conditions: Escherichia coli, ELZ4000, read-out: MIC ELZ4000. In a few lines:
as §1

For test [3], the system named is Staphylococcus aureus (S. aureus) 29213. The test is described as follows: Antibacterial activity, microbroth dilution MIC (Table 1). In kind it is cell-based. Particulars: microbroth dilution, Gram-positive S. aureus 29213, read-out: MIC, 29213. In a few lines: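 In a microbroth dilution test, the minimum inhibitory concentration was defined as the lowest compound level preventing growth seen by eye, and was given in μg/mL.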

In test [4] the test system is Escherichia coli (E. coli) BAS849. The description is as above. In kind it is cell-based. Conditions: microbroth dilution, super sensitive Gram-negative E. coli BAS849, read-out: MIC, BAS849. The method, boiled down:
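Growth inhibition by microbroth dilution. MIC = lowest μg/mL with no visible growth. Strain 25922 is the control Gram-negative; BAS849 is hypersensitive.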
For orientation: Dilution methods test growth across graded concentrations, often in twofold steps.

For test [5], the system named is Haemophilus influenzae (H. influenzae) 49247. The test is described as follows: Antibacterial activity, MIC (Table 6). In kind it is cell-based. The method, boiled down: (§2)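 Read-out: absence of macroscopically visible growth. The lowest inhibiting concentration from the microbroth dilution series is reported as MIC in μg/mL.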
For test [6], the system named is Pseudomonas aeruginosa (P. aeruginosa) 27853. The test is described as follows: Antibacterial activity, MIC (Table 5). Conditions: P. aeruginosa 27853, read-out: MIC, 27853. In kind it is cell-based. The method, boiled down: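 Values are MICs in μg/mL, read as the lowest concentration at which no growth is visible by eye. They were determined by a microbroth dilution method.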

In test [7] the test system is Acinetobacter baumannii (A. baumannii) BAA747. The test is described as follows: Antibacterial activity, MIC (Table 4). The format is cell-based. Conditions: A. baumannii BAA747, read-out: MIC, BAA747. The method, boiled down:
(§3)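 Values are MICs in μg/mL, read as the lowest compound concentration at which no growth is visible by eye. They come from a microbroth dilution method.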

Test [8] concerns Klebsiella pneumoniae (K. pneumoniae) 35657. The test is described as follows: Antibacterial activity, MIC (Table 4). The format is cell-based. Particulars: K. pneumoniae 35657, read-out: MIC, 35657. The method, boiled down: as §3
The test system of test [9] is E. coli LZ3111. The test is described as follows: Antibacterial activity, MIC, quinolone resistant strain (Table 2). In kind it is cell-based. Particulars: Escherichia coli, LZ3111, read-out: MIC LZ3111. In a few lines: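 MIC values (μg/mL) came from a microbroth dilution assay, scored as the lowest drug concentration at which no growth was visible by eye.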
Test [10] has as its system Moraxella catarrhalis (M. catarrhalis) 25238. The test is described as follows: Antibacterial activity, MIC (Table 7). The format is cell-based. The method, boiled down:
as §2

In test [11] the test system is Neisseria meningitidis (N. meningitidis) 13090. In words: Antibacterial activity, MIC (Table 8). In kind it is cell-based. The method, boiled down: as §2
For test [12], the system named is E. coli 25922. In words: Antibacterial activity, microbroth dilution MIC (Table 1). The format is cell-based, Escherichia coli. Conditions: Escherichia coli; microbroth dilution; control Gram-negative E. coli 25922 strain; read-out: MIC, 25922. The method, boiled down: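 Microbroth dilution was used. MIC, in μg/mL, is the lowest drug concentration preventing macroscopically visible growth under the test conditions.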

Test [13] relates to K. pneumoniae MXX1232. In words: Antibacterial activity, MIC, resistant strain (Table 4). In kind it is cell-based. Particulars: Klebsiella pneumoniae, MXX1232; resistant K. pneumoniae MMX1232, multi-drug resistant clinical isolate; read-out: MIC, MMX1232. In a few lines:
as §3

For test [14], the system named is A. baumannii MXX2240. Described as above. The format is cell-based. Particulars: Acinetobacter baumannii, MXX2240; resistant A. baumannii MMX2240, multi-drug resistant clinical isolate; read-out: MIC, MMX2240. In a few lines: as §3

Regarding `CCc1c(-c2ccc3c(c2)cc(CNC2(C)CCC2)n3C)[nH]c(=O)c(C(=O)O)c1O.Cl` [Cpd 245, 5-ethyl-4-hydroxy-6-(1-methyl-2-((1-methylcyclobutylamino)methyl)-1H-indol-5-yl)-2-oxo-1,2-dihydropyridine-3-carboxylic acid hydrochloride], the MIC in [1] is 1 to 3.5 µg/mL; in test [2] it was 3.5 to 12.5 µg/mL; in test [3], 3.5 to 12.5 µg/mL; in test [4], less than 1 µg/mL; in [5], less than 1 µg/mL; in [6], 3.5 to 12.5 µg/mL. The MIC was less than 1 µg/mL in test [7]; less than 1 µg/mL in test [8]; 1 to 3.5 µg/mL in test [9]; less than 1 µg/mL in [10]; less than 1 µg/mL in [11]; less than 1 µg/mL in test [12]. Besides, the MIC is 12.5 to 150 µg/mL in test [13] and 1 to 3.5 µg/mL in test [14].
`CCc1c(-c2ccc3c(c2)cc(CN2CCC(C)CC2)n3C)[nH]c(=O)c(C(=O)O)c1O` [Cpd 247, 5-ethyl-4-hydroxy-6-(1-methyl-2-((4-methylpiperidin-1-yl)methyl)-1H-indol-5-yl)-2-oxo-1,2-dihydropyridine-3-carboxylic acid]: the MIC in test [1] was 12.5 to 150 µg/mL (≈ 29.5 to 354 µM); in test [2] it was 12.5 to 150 µg/mL (≈ 29.5 to 354 µM); in test [3], 3.5 to 12.5 µg/mL (≈ 8.26 to 29.5 µM); in [4], less than 1 µg/mL; in [5], 1 to 3.5 µg/mL (≈ 2.36 to 8.26 µM); in test [6], 12.5 to 150 µg/mL (≈ 29.5 to 354 µM). Further, the MIC was 1 to 3.5 µg/mL (≈ 2.36 to 8.26 µM) in [7]; 1 to 3.5 µg/mL (≈ 2.36 to 8.26 µM) in [8]; 3.5 to 12.5 µg/mL (≈ 8.26 to 29.5 µM) in test [9]; less than 1 µg/mL in [10]; less than 1 µg/mL in test [11]; less than 1 µg/mL in test [12]. Further, the MIC in test [13] was 12.5 to 150 µg/mL (≈ 29.5 to 354 µM); in [14] it was 1 to 3.5 µg/mL (≈ 2.36 to 8.26 µM).
With `CCc1c(-c2ccc3c(c2)cc(CN2CCC(N(C)C)CC2)n3C)[nH]c(=O)c(C(=O)O)c1O` [Cpd 248, 6-(2-((4-(dimethylamino)piperidin-1-yl)methyl)-1-methyl-1H-indol-5-yl)-5-ethyl-4-hydroxy-2-oxo-1,2-dihydropyridine-3-carboxylic acid], the MIC was 12.5 to 150 µg/mL (≈ 27.6 to 331 µM) in [1]; 12.5 to 150 µg/mL (≈ 27.6 to 331 µM) in test [2]; 3.5 to 12.5 µg/mL (≈ 7.73 to 27.6 µM) in test [3]; less than 1 µg/mL in test [4]; less than 1 µg/mL in test [5]; 12.5 to 150 µg/mL (≈ 27.6 to 331 µM) in [6]. For the same compound, the MIC is 1 to 3.5 µg/mL (≈ 2.21 to 7.73 µM) in test [7]; 1 to 3.5 µg/mL (≈ 2.21 to 7.73 µM) in test [8]; 3.5 to 12.5 µg/mL (≈ 7.73 to 27.6 µM) in [9]; 1 to 3.5 µg/mL (≈ 2.21 to 7.73 µM) in test [10]; less than 1 µg/mL in test [11]; less than 1 µg/mL in test [12]. The MIC in test [13] and in [14] was 12.5 to 150 µg/mL (≈ 27.6 to 331 µM) throughout.
Consider `CCc1c(-c2ccc3c(c2)cc(CN2CCCC(N(C)C)C2)n3C)[nH]c(=O)c(C(=O)O)c1O` (centres unmarked) [Cpd 250, 6-(2-((3-(dimethylamino)piperidin-1-yl)methyl)-1-methyl-1H-indol-5-yl)-5-ethyl-4-hydroxy-2-oxo-1,2-dihydropyridine-3-carboxylic acid], for which the MIC is 12.5 to 150 µg/mL (≈ 27.6 to 331 µM) in [1]; 12.5 to 150 µg/mL (≈ 27.6 to 331 µM) in [2]; 3.5 to 12.5 µg/mL (≈ 7.73 to 27.6 µM) in test [3]; less than 1 µg/mL in test [4]; 3.5 to 12.5 µg/mL (≈ 7.73 to 27.6 µM) in test [5]; 12.5 to 150 µg/mL (≈ 27.6 to 331 µM) in test [6]. Moreover, the MIC in test [7] is 3.5 to 12.5 µg/mL (≈ 7.73 to 27.6 µM); in test [8], 3.5 to 12.5 µg/mL (≈ 7.73 to 27.6 µM); in test [9] it was 3.5 to 12.5 µg/mL (≈ 7.73 to 27.6 µM); in test [10], 1 to 3.5 µg/mL (≈ 2.21 to 7.73 µM); in test [11], less than 1 µg/mL; in test [12], 1 to 3.5 µg/mL (≈ 2.21 to 7.73 µM). For the same compound, the MIC in test [13] and in test [14] was 12.5 to 150 µg/mL (≈ 27.6 to 331 µM) throughout.

(Values after patent publication US9409905B2, “Antibacterial compounds and methods for use” (PTC THERAPEUTICS, INC., priority 2011, dated 2016).)
